Measured values reported in patent publication US20220000964A1, “Compositions and Methods for Regulating Homeostasis of Chondrocytes, Extracellular Matrix, Articular Cartilage, and Phenotype of Arthritis” (Unigen, Inc., priority 2020, published 2022).
Marks after values point to notes of the source that are not given here.

Experiments:
Type in all cases: in vivo, rat
[1] = tested on: CIA rats; assay: CIA rats, compression-induced pain (Randall-Salitto)
Experimental: Clinical findings such as arthritis severity index, paw thickness, ankle diameter (using Digital Absolute, Model #PK-0505CPX, Mitutoyo Corporation, Kawasaki, Japan), and pain sensitivity (using Randall Salitto, IITC Life Science Inc., Woodland Hills, Calif., USA) were monitored during the course of study. Urine was collected from overnight fasted rats using metabolic cages after three weeks of treatment post-model induction. At Necropsy, serum from the cardiac and synovial lavage (100 μL of saline was injected into the articular cavity and aspirated back to the syringe) for biomarkers and ankle joint for histopathology were collected from each animal.
(§1) Response to pressure as a measure of pain sensitivity was assessed using the Randall-Salitto probe attached to an electronic monitor on priming day, boost day, and days 12, 14, 16, 19, and 21. Both the left and right hind legs were monitored on those days and their average was used for data analysis. Changes from the vehicle-treated CIA rats have been reported as pain tolerance on those days.
as §1, with “measured” for “assessed”, “18” for “19,”, “20.” for “21.”, “averages were” for “average was”, “days. […] This reduction in pain sensitivity was statistically significant at all time points as of day-12 for both groups when compared to vehicle-treated CIA rats (Table 43).” for “days.”

[2] = tested on: IL-6; assay: CIA rats, serum IL-6 ELISA; details: for IL-6: serum
Experimental: The presence of catabolic cytokines IL-1β, TNF-α, or IL-6 was measured using Rat IL-1, TNF-α, and IL-6 Quantikine ELISA kit from R and D Systems (product #: RLB00 for IL-1β, RTA00 for TNF-α, and R6000B for IL-6) as follows: diluted serum was added to a microplate coated with polyclonal IL-1, TNF-α, or IL-6 antibody and allowed to bind for 2 h at room temperature. The microplate was washed thoroughly to remove unbound serum and then a polyclonal enzyme-conjugated IL-1β, TNF-α, or IL-6 antibody was added and allowed to bind for 2 h at room temperature. Washing was repeated, enzyme substrate was added, and the plate was developed for 30 min at room temperature. After the addition of stop solution, the absorbance was read at 450 nm, multiplied by dilution factor, and the concentration of IL-1β/TNF-α/IL-6 calculated based on the absorbance readings of an IL-1β/TNF-α/TL-6 standard curve.
The presence of catabolic cytokines IL-6/TNF-α was measured using the Rat IL-6/TNF-α Quantikine ELISA kit from RandD Systems as follows: undiluted serum was added to a microplate coated with polyclonal IL-6/TNF-α antibody and allowed to bind for 2 hours at room temperature. The microplate was washed thoroughly to remove unbound serum, and then a polyclonal enzyme-conjugated IL-6/TNF-α antibody was added and allowed to bind for 2 hours at room temperature. Washing was repeated, enzyme substrate was added, and the plate was developed for 30 minutes at room temperature. After the addition of stop solution, the absorbance was read at 450 nm and the concentration of IL-6/TNF-α calculated based on the absorbance readings of an IL-6/TNF-α standard curve.

[3] = tested on: CIA rats; assay: CIA rats, paw thickness; parameters: Paw thickness (Mean): unit not given beside the values; details: for % Inhibition Paw thickness (AUC): vs CIA + vehicle

SMILES: CN(Cc1cnc2nc(N)nc(N)c2n1)c1ccc(C(=O)N[C@@H](CCC(=O)O)C(=O)O)cc1 [Methotrexate]
- pain tolerance improvement vs vehicle-treated CIA ([1]; AP CIA study, Methotrexate 0.5 mg/kg, day 20): 69.4%
- range of reduction in pain sensitivity vs vehicle treated CIA rats ([1]; AP CIA study, days 12-20): 8.39-69.4%
- Compression pain resistance vs CIA + vehicle (Mean ± SD) ([1]; Boost, MTX 0.5 mg/kg, AP 200 mg/kg): −1.50%
- Compression pain resistance vs CIA + vehicle (Mean ± SD) ([1]; Day 12, MTX 0.5 mg/kg, AP 200 mg/kg): 8.39%
- Compression pain resistance vs CIA + vehicle (Mean ± SD) ([1]; Day 14, MTX 0.5 mg/kg, AP 200 mg/kg): 27.30%
- Compression pain resistance vs CIA + vehicle (Mean ± SD) ([1]; Day 16, MTX 0.5 mg/kg, AP 200 mg/kg): 54.31%
- Compression pain resistance vs CIA + vehicle (Mean ± SD) ([1]; Day 18, MTX 0.5 mg/kg, AP 200 mg/kg): 64.13%
- Compression pain resistance vs CIA + vehicle (Mean ± SD) ([1]; Day 20, MTX 0.5 mg/kg, AP 200 mg/kg): 69.35%
- Compression pain resistance vs CIA + vehicle (Mean ± SD) ([1]; MTX 75 μg/kg, AMK 200 mg/kg oral, Boost): 0.27 ± 2.16%
- Compression pain resistance vs CIA + vehicle (Mean ± SD) ([1]; MTX 75 μg/kg, AMK 200 mg/kg oral, Day 12): 6.8%
- Compression pain resistance vs CIA + vehicle (Mean ± SD) ([1]; MTX 75 μg/kg, AMK 200 mg/kg oral, Day 12, listed as MTX): 6.75 ± 4.56 %
- Compression pain resistance vs CIA + vehicle (Mean ± SD) ([1]; MTX 75 μg/kg, AMK 200 mg/kg oral, Day 14): 13.5%
- Compression pain resistance vs CIA + vehicle (Mean ± SD) ([1]; MTX 75 μg/kg, AMK 200 mg/kg oral, Day 14, listed as MTX): 13.48 ± 15.98%
- Compression pain resistance vs CIA + vehicle (Mean ± SD) ([1]; MTX 75 μg/kg, AMK 200 mg/kg oral, Day 16): 28.2%
- Compression pain resistance vs CIA + vehicle (Mean ± SD) ([1]; MTX 75 μg/kg, AMK 200 mg/kg oral, Day 16, listed as MTX): 28.18 ± 12.53 %
- Compression pain resistance vs CIA + vehicle (Mean ± SD) ([1]; MTX 75 μg/kg, AMK 200 mg/kg oral, Day 19): 40.8%
- Compression pain resistance vs CIA + vehicle (Mean ± SD) ([1]; MTX 75 μg/kg, AMK 200 mg/kg oral, Day 19, listed as MTX): 40.77%
- Compression pain resistance vs CIA + vehicle (Mean ± SD) ([1]; MTX 75 μg/kg, AMK 200 mg/kg oral, Day 21): 43.9%
- Compression pain resistance vs CIA + vehicle (Mean ± SD) ([1]; MTX 75 μg/kg, AMK 200 mg/kg oral, Day 21, listed as MTX): 43.88 ± 5.97^¥ %
- Compression pain resistance vs CIA + vehicle (Mean ± SD) ([1]; MTX 75 μg/kg, AMK 200 mg/kg oral, Prime): −0.12 ± 1.39%
- Compression pain resistance vs CIA + vehicle (Mean ± SD) ([1]; Prime, MTX 0.5 mg/kg, AP 200 mg/kg): −1.20%
- serum IL-6 inhibition compared to diseased control ([2]; AMK CIA study, MTX 75 μg/kg, AMK 200 mg/kg oral): 78.6%
- IL-6 ([2]; AMK study, MTX (75 μg/mL), AMK (200 mg/kg)): 10.23 ± 7.37 pg/mL
- IL-6 ([2]; AP study, MTX (0.5 mg/mL), AP (200 mg/kg) oral 3 weeks): 3.33 ± 6.44 pg/mL
- percent reduction in paw thickness / paw edema (AUC) vs vehicle-treated CIA ([3]; AMK CIA study, MTX 75 μg/kg, AMK 200 mg/kg oral, area under the swelling curve): 71.7%
- AUC(d9-d21) (Mean ± SD) Paw thickness ([3]; AMK study, MTX 75 μg/kg, AMK 200 mg/kg): 20.64 ± 0.21
- percent reduction in paw thickness / paw edema (AUC) vs vehicle-treated CIA ([3]; AP CIA study, Methotrexate 0.5 mg/kg, AP 200 mg/kg oral): 93.8%
- AUC(d9-d21) (Mean ± SD) Paw thickness ([3]; AP study, MTX 0.5 mg/kg, AP 200 mg/kg): 15.55 ± 0.21
- Paw thickness ([3]; Boost, AP study, MTX 0.5 mg/kg, AP 200 mg/kg): 2.95 ± 0.06
- Paw thickness (Mean) ([3]; Boost, MTX 75 μg/kg, AMK 200 mg/kg): 3.07
- Paw thickness (Mean) ([3]; Day 9, MTX 75 μg/kg, AMK 200 mg/kg): 3.12
- Paw thickness (Mean) ([3]; Day 10, MTX 75 μg/kg, AMK 200 mg/kg): 3.17
- Paw thickness (Mean) ([3]; Day 11, MTX 75 μg/kg, AMK 200 mg/kg): 3.32
- Paw thickness ([3]; Day 12, AP study, MTX 0.5 mg/kg, AP 200 mg/kg): 2.99 ± 0.06
- Paw thickness (Mean) ([3]; Day 12, MTX 75 μg/kg, AMK 200 mg/kg): 3.47*
- Paw thickness (Mean) ([3]; Day 13, MTX 75 μg/kg, AMK 200 mg/kg): 3.53*
- Paw thickness ([3]; Day 14, AP study, MTX 0.5 mg/kg, AP 200 mg/kg): 3.01 ± 0.03
- Paw thickness (Mean) ([3]; Day 14, MTX 75 μg/kg, AMK 200 mg/kg): 3.60*
- Paw thickness (Mean) ([3]; Day 15, MTX 75 μg/kg, AMK 200 mg/kg): 3.98^†
- Paw thickness ([3]; Day 16, AP study, MTX 0.5 mg/kg, AP 200 mg/kg): 3.21 ± 0.05
- Paw thickness (Mean) ([3]; Day 16, MTX 75 μg/kg, AMK 200 mg/kg): 4.32^†
- Paw thickness (Mean) ([3]; Day 17, MTX 75 μg/kg, AMK 200 mg/kg): 3.96^¥
- Paw thickness ([3]; Day 18, AP study, MTX 0.5 mg/kg, AP 200 mg/kg): 3.25 ± 0.05
- Paw thickness (Mean) ([3]; Day 19, MTX 75 μg/kg, AMK 200 mg/kg): 3.06^¥
- Paw thickness ([3]; Day 20, AP study, MTX 0.5 mg/kg, AP 200 mg/kg): 3.23 ± 0.06
- Paw thickness (Mean) ([3]; Day 21, MTX 75 μg/kg, AMK 200 mg/kg): 3.07^€
- Paw thickness ([3]; Priming, AP study, MTX 0.5 mg/kg, AP 200 mg/kg): 2.93 ± 0.07
- Paw thickness (Mean) ([3]; Priming, MTX 75 μg/kg, AMK 200 mg/kg): 3.06
- % Inhibition Paw thickness (AUC) ([3]; MTX 75 μg/kg, AMK 200 mg/kg): 71.71%
- % Inhibition Paw thickness (AUC) ([3]; MTX 0.5 mg/kg, AP 200 mg/kg): 93.81%
